How the values were obtained:
Type in all cases: functional
Blumeria graminis [1] = assay: Antifungal activity against Blumeria graminis assessed as inhibition at 1.56 mg/L relative to control
[2] = system: Pseudoperonospora cubensis; assay: Antifungal activity against Pseudoperonospora cubensis assessed as inhibition at 400 mg/L relative to control
Phytophthora infestans [3] = assay: Antifungal activity against Phytophthora infestans assessed as inhibition at 25 mg/L relative to control
Pyricularia oryzae [4] = assay: Antifungal activity against Magnaporthe oryzae assessed as inhibition at 25 mg/L relative to control
[5] = system: Pseudoperonospora cubensis; assay: Antifungal activity against Pseudoperonospora cubensis assessed as inhibition at 25 mg/L relative to control
Blumeria graminis [6] = assay: Antifungal activity against Blumeria graminis assessed as inhibition at 6.25 mg/L relative to control
Blumeria graminis [7] = assay: Antifungal activity against Blumeria graminis assessed as inhibition at 400 mg/L relative to control
Phytophthora infestans [8] = assay: Antifungal activity against Phytophthora infestans assessed as inhibition at 0.92 mg/L relative to control
[9] = system: Pseudoperonospora cubensis; assay: Antifungal activity against Pseudoperonospora cubensis assessed as inhibition at 6.25 mg/L relative to control
Pyricularia oryzae [10] = assay: Antifungal activity against Magnaporthe oryzae assessed as inhibition at 0.92 mg/L relative to control

Compound	inhibition at 1.56 µg/mL (Blumeria graminis [1]) [%]	inhibition at 400 µg/mL [2] [%]	inhibition at 25 µg/mL (Phytophthora infestans [3]) [%]	inhibition at 25 µg/mL (Pyricularia oryzae [4]) [%]	inhibition at 25 µg/mL [5] [%]	inhibition at 6.25 µg/mL (Blumeria graminis [6]) [%]	inhibition at 400 µg/mL (Blumeria graminis [7]) [%]	inhibition at 0.92 µg/mL (Phytophthora infestans [8]) [%]	inhibition at 6.25 µg/mL [9] [%]	inhibition at 0.92 µg/mL (Pyricularia oryzae [10]) [%]
CO/N=C(/C(=O)OC)c1ccccc1COc1c(C)c(-c2ccc(Cl)cc2)nn1C	98	100	100	50	100	100	100	100	100	–
CNC(=O)/C(=N/OC)c1ccccc1COc1c(C)c(-c2ccc(OCC(F)(F)F)cc2)nn1C	40	100	100	80	80	100	100	50	30	50
CCOc1ccc(-c2nn(C)c(OCc3ccccc3/C(=N\OC)C(=O)NC)c2C)cc1	70	98	100	100	20	100	100	50	–	100
CCc1ccc(-c2nn(C)c(OCc3ccccc3/C(=N\OC)C(=O)NC)c2C)cc1	90	50	100	100	–	100	100	80	–	0
CNC(=O)/C(=N/OC)c1ccccc1COc1c(C)c(-c2ccc(C(C)(C)C)cc2)nn1C	0	95	100	100	20	0	100	40	–	100
CNC(=O)/C(=N/OC)c1ccccc1COc1c(C)c(-c2ccc(C)cc2C)nn1C	65	100	100	100	100	100	100	100	100	50
CNC(=O)/C(=N/OC)c1ccccc1COc1c(C)c(-c2ccc(C)cc2)nn1C	40	65	100	0	–	95	100	100	–	–
CNC(=O)/C(=N/OC)c1ccccc1COc1cc(-c2ccccc2Cl)nn1C	55	90	100	0	40	90	100	0	–	–
CNC(=O)/C(=N/OC)c1ccccc1COc1c(C)c(-c2ccc(Cl)cc2)nn1C	85	80	100	0	40	100	100	–	–	–
CNC(=O)/C(=N/OC)c1ccccc1COc1cc(-c2ccc(OC)cc2)nn1C	–	98	100	100	30	0	100	0	–	80
CNC(=O)/C(=N/OC)c1ccccc1COc1cc(-c2ccc(C(C)(C)C)cc2)nn1C	–	80	100	100	0	–	0	50	–	50
CNC(=O)/C(=N/OC)c1ccccc1COc1cc(-c2ccccc2)nn1C	–	100	–	0	100	–	50	–	70	–
CO/N=C(/C(=O)OC)c1ccccc1COc1c(C)c(-c2ccc(OCC(F)(F)F)cc2)nn1C	15	80	50	100	0	70	100	–	–	80
CO/N=C(/C(=O)OC)c1ccccc1COc1c(C)c(-c2ccc(C(C)(C)C)cc2)nn1C	–	40	0	50	–	–	70	–	–	–
CCc1ccc(-c2nn(C)c(OCc3ccccc3/C(=N\OC)C(=O)OC)c2C)cc1	100	98	100	50	70	100	100	80	50	–
CO/N=C(/C(=O)OC)c1ccccc1COc1c(C)c(-c2ccc(C)cc2)nn1C	100	95	100	50	60	100	100	100	–	–
CO/N=C(/C(=O)OC)c1ccccc1COc1cc(-c2ccccc2OC)nn1C	40	50	0	100	–	90	100	–	–	50
CO/N=C(/C(=O)OC)c1ccccc1COc1cc(-c2ccccc2Cl)nn1C	45	80	100	100	30	75	100	0	–	0
CO/N=C(/C(=O)OC)c1ccccc1COc1cc(-c2ccc(OC)cc2)nn1C	–	98	100	0	50	10	100	0	–	–
CO/N=C(/C(=O)OC)c1ccccc1COc1cc(-c2ccc(C(C)(C)C)cc2)nn1C	–	95	100	100	0	–	0	60	–	80
CO/C=C(/C(=O)OC)c1ccccc1Oc1cc(Oc2ccccc2C#N)ncn1 [AZOXYSTROBIN]	60	100	–	100	100	100	100	–	95	–
CO/N=C(/C(=O)OC)c1ccccc1COc1ccccc1C [KRESOXIM-METHYL]	100	–	100	100	35	100	100	–	0	–

Source: ChEMBL document CHEMBL3044728, “Synthesis and biological activity of new (E)-alpha-(Methoxyimino)benzeneacetate derivatives containing a substituted pyrazole ring” (2010)
